The record followed here is patent publication US5556744A, “Methods and compositions for diagnosing and treating certain HIV infected patients” (The Trustees of the University of Pennsylvania, priority 1994, dated 1996).

In test [1] the test system is maternal sera (antibodies). Briefly: ELISA peptide-binding of maternal sera (Example 6). Further details: species or system human. The following applies: for Number of Non-Transmitters which bound to peptide / Percent of Non-Transmitters which bound to peptide: N = 12; for Number of Transmitters which bound to peptide / Percent of Transmitters which bound to peptide: N = 4. The source says: A total of 86 maternal sera samples obtained from patients of the Hospital of the University of Pennsylvania during the third trimester of pregnancy were used in this study 58 (67%) were non-transmitters and 28 (33%) were transmitters. This is approximately consistent with the national average (i.e. a rate of transmission between 25-30%). Transmission status was based upon serological or molecular diagnosis of children (at an age of greater than 15 months) born to these mothers. Because of the constraints on the volume of serum available for many of these samples, not all sera were analyzed with all the peptides. However, each sera sample was run with at least 40 peptides.
These peptides are of an average length of 16 amino acids and covered the entire external as well as the transmembrane glycoprotein of HIV-1. Peptide binding was analyzed by ELISA essentially as described in Example 3.
The results of one study, using some of the peptides identified above among others, is provided in Table 12, which illustrates the number and percent of non-transmitters which bound to the tested peptide. The percentage designation refers to the percentage of sera samples which bound to a particular peptide. A value of greater than 0% means that at least one of the samples bound to the particular peptides.
For orientation: ELISA stands for enzyme-linked immunosorbent assay.

Test [2] relates to maternal HIV+ sera (antibodies). In words: RIA / ELISA binding of maternal HIV+ sera to gp120 and gp41 peptides (Example 3). Further details: species or system human. Summed up: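 Maternal sera, diluted 1:50 and 1:500, were bound overnight at 4°C to peptides immobilized at 10 μg/ml (pH 9.6 carbonate) and blocked with 1% BSA. Read-out was ¹²⁵I-labelled anti-human IgG counts or HRP-TMB OD450. Signal with peptide minus without was expressed relative to seronegative serum.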

With “p41-20: gp41 peptide, amino acids 644-663, HIV strain IIIB, SEQ ID NO: 154 (SLIEESQNQQEKNEQELLEL)”, in test [1], the “Number of Non-Transmitters which bound to peptide” value turned out to be 2, the “Percent of Non-Transmitters which bound to peptide” value amounted to 16.7%, the “Number of Transmitters which bound to peptide” value is on record as 0 and the “Percent of Transmitters which bound to peptide” value was 0%.

Regarding “C21E: gp120 peptide, amino acids 252-272, HIV strain MN, SEQ ID NO: 147 (CTHGIRPVVSTQLLLNGSLAE) [Peptide C21E]”, in test [1], the “Number of Non-Transmitters which bound to peptide” value turned out to be 0, the “Percent of Non-Transmitters which bound to peptide” value is 0%, the “Number of Transmitters which bound to peptide” value came out at 0 and the “Percent of Transmitters which bound to peptide” value is on record as 0%.

Regarding “DC419 (IIIB): Peptide DC419 (IIIB), Sequence ID No. 191 (TGDIITLPCRIKQIINRWQV)”, in test [1], the “Number of Non-Transmitters which bound to peptide” value was determined as 0, the “Percent of Non-Transmitters which bound to peptide” value is 0%, the “Number of Transmitters which bound to peptide” value stood at 0 and the “Percent of Transmitters which bound to peptide” value was determined as 0%.

On to “A405: gp120 peptide, amino acids 405-423, HIV strain Z3, SEQ ID NO: 130 (TGNITLPCRIKQVVRTWQG) [Peptide A405]”, for which, in test [1], the “Number of Non-Transmitters which bound to peptide” value is recorded as 1, the “Percent of Non-Transmitters which bound to peptide” value was determined as 8.3%, the “Number of Transmitters which bound to peptide” value is 0 and the “Percent of Transmitters which bound to peptide” value stood at 0%.

As to “CNNKTFNGTGFCTNVSTVQ (CNNKTFNGTGPCTNVSTVQ) [Peptide C19Q]”, in test [1], the “Number of Non-Transmitters which bound to peptide” value amounted to 4, the “Number of Transmitters which bound to peptide” value worked out at 0 and the “Percent of Transmitters which bound to peptide” value is 0%.

Take “BS-2: gp41 peptide, amino acids 625-634, HIV strain IIIB, SEQ ID NO: 176 (NMTWMEWDRE)”: in test [1], the “Number of Non-Transmitters which bound to peptide” value is on record as 0, the “Percent of Non-Transmitters which bound to peptide” value is recorded as 0%, the “Number of Transmitters which bound to peptide” value was determined as 0 and the “Percent of Transmitters which bound to peptide” value is 0%.

With VVQREKRAVGIG [Peptide 510], in test [1], the “Number of Non-Transmitters which bound to peptide” value stood at 4, the “Number of Transmitters which bound to peptide” value came out at 0 and the “Percent of Transmitters which bound to peptide” value stood at 0%.

On to YNKRKRIHIQRGPGRAFYTTKNII [AIDS-PND], for which, in test [1] (Example 6), the “Correlation of peptide binding with non-transmitters (in words)” value is recorded as “selectively correlate with non-transmitters” and the “Fold binding, non-transmitters vs transmitters” value is listed as “at least two fold greater”. For the same substance, in test [1], the “Number of Non-Transmitters which bound to peptide” value amounted to 7, the “Percent of Non-Transmitters which bound to peptide” value is reported as 58.3%, the “Number of Transmitters which bound to peptide” value was found to be 1 and the “Percent of Transmitters which bound to peptide” value is listed as 25%. Also, the “Percent of Non-Transmitters which bound to peptide” value in test [1] (listed as AID-PND) was “greater than 50%”.

For “T19V: Peptide T19V, Sequence ID No. 195; described in the January 1991 Catalog (TGPCTNVSTVQCTHGIRPV)”, in test [1], the “Number of Non-Transmitters which bound to peptide” value is 3, the “Percent of Non-Transmitters which bound to peptide” value was determined as 25%, the “Number of Transmitters which bound to peptide” value amounted to 0 and the “Percent of Transmitters which bound to peptide” value is 0%.

With “A524: gp41 peptide, amino acids 523-530, HIV strain MN, SEQ ID NO: 163 (FLGFLGAAGST) [Peptide A524]”, in test [1], the “Number of Non-Transmitters which bound to peptide” value was 0, the “Percent of Non-Transmitters which bound to peptide” value came out at 0%, the “Number of Transmitters which bound to peptide” value is reported as 0 and the “Percent of Transmitters which bound to peptide” value is 0%.

For the substance “A6939: gp120 peptide, amino acids 210-227, SEQ ID NO:108 (FEPIPIHYCAPAGFAILK) [Peptide A6939]”, in test [1], the “Number of Non-Transmitters which bound to peptide” value worked out at 0, the “Percent of Non-Transmitters which bound to peptide” value was determined as 0%, the “Number of Transmitters which bound to peptide” value was determined as 0 and the “Percent of Transmitters which bound to peptide” value came out at 0%.

With “A581: gp41 peptide, amino acids 576-592, SEQ ID NO:120 (LQARILAVERYLKDQQL) [Peptide A581]”, in test [1], the “Number of Non-Transmitters which bound to peptide” value came to 2, the “Percent of Non-Transmitters which bound to peptide” value is listed as 16.7%, the “Number of Transmitters which bound to peptide” value is reported as 0 and the “Percent of Transmitters which bound to peptide” value came out at 0%.

For the substance “A604 (IIIB): Peptide A604 (IIIB), Sequence ID No. 193 (CTTAVPWNASWSNKS)”, in test [1], the “Number of Non-Transmitters which bound to peptide” value is reported as 2, the “Percent of Non-Transmitters which bound to peptide” value is 16.7%, the “Number of Transmitters which bound to peptide” value stood at 0 and the “Percent of Transmitters which bound to peptide” value is on record as 0%.

PQEVVLVNVTGENFNM [Peptide 96]: the “Binding of maternal sera to peptide (in words)” value in test [2] (Example 3) is given as “No binding”. In addition, the “Binding of maternal HIV+ serum to peptide (sera/NHS ratio)” value (“Binding … (sera/NHS ratio)” below) in test [2] (Serum No. 1, Non-Transmission Group) is listed as “- (specific OD450 or cpm of sera sample binding to peptide divided by the specific OD450 or cpm of NHS sample binding to peptide, which value is less than 2)”; in test [2] (Serum No. 2, Non-Transmission Group) it was “- (specific OD450 or cpm of sera sample binding to peptide divided by the specific OD450 or cpm of NHS sample binding to peptide, which value is less than 2)”; in test [2] (Serum No. 3, Non-Transmission Group) it was “- (specific OD450 or cpm of sera sample binding to peptide divided by the specific OD450 or cpm of NHS sample binding to peptide, which value is less than 2)”; in test [2] (Serum No. 4, Transmission Group), “- (specific OD450 or cpm of sera sample binding to peptide divided by the specific OD450 or cpm of NHS sample binding to peptide, which value is less than 2)”; in test [2] (Serum No. 5, Transmission Group) it was “- (specific OD450 or cpm of sera sample binding to peptide divided by the specific OD450 or cpm of NHS sample binding to peptide, which value is less than 2)”; in test [2] (Serum No. 6, Non-Transmission Group) it was “- (specific OD450 or cpm of sera sample binding to peptide divided by the specific OD450 or cpm of NHS sample binding to peptide, which value is less than 2)”. Further, the “Binding … (sera/NHS ratio)” value in test [2] (Serum No. 7, Non-Transmission Group) is “- (specific OD450 or cpm of sera sample binding to peptide divided by the specific OD450 or cpm of NHS sample binding to peptide, which value is less than 2)”; in test [2] (Serum No. 8, Non-Transmission Group), “- (specific OD450 or cpm of sera sample binding to peptide divided by the specific OD450 or cpm of NHS sample binding to peptide, which value is less than 2)”; in test [2] (Serum No. 9, Non-Transmission Group), “- (specific OD450 or cpm of sera sample binding to peptide divided by the specific OD450 or cpm of NHS sample binding to peptide, which value is less than 2)”; in test [2] (Serum No. 10, Transmission Group), “- (specific OD450 or cpm of sera sample binding to peptide divided by the specific OD450 or cpm of NHS sample binding to peptide, which value is less than 2)”; in test [2] (Serum No. 11, Non-Transmission Group), “- (specific OD450 or cpm of sera sample binding to peptide divided by the specific OD450 or cpm of NHS sample binding to peptide, which value is less than 2)”; in test [2] (Serum No. 12, Non-Transmission Group), “- (specific OD450 or cpm of sera sample binding to peptide divided by the specific OD450 or cpm of NHS sample binding to peptide, which value is less than 2)”. Moreover, the “Binding … (sera/NHS ratio)” value in test [2] (Serum No. 13, Transmission Group) is “- (specific OD450 or cpm of sera sample binding to peptide divided by the specific OD450 or cpm of NHS sample binding to peptide, which value is less than 2)”; in test [2] (Serum No. 14, Transmission Group) it was “- (specific OD450 or cpm of sera sample binding to peptide divided by the specific OD450 or cpm of NHS sample binding to peptide, which value is less than 2)”; in test [2] (Serum No. 15, Transmission Group) it was “- (specific OD450 or cpm of sera sample binding to peptide divided by the specific OD450 or cpm of NHS sample binding to peptide, which value is less than 2)”; in test [2] (Serum No. 16, Non-Transmission Group), “- (specific OD450 or cpm of sera sample binding to peptide divided by the specific OD450 or cpm of NHS sample binding to peptide, which value is less than 2)”; in test [2] (Serum No. 17, Non-Transmission Group), “- (specific OD450 or cpm of sera sample binding to peptide divided by the specific OD450 or cpm of NHS sample binding to peptide, which value is less than 2)”; in test [2] (Serum No. 18, Non-Transmission Group), “- (specific OD450 or cpm of sera sample binding to peptide divided by the specific OD450 or cpm of NHS sample binding to peptide, which value is less than 2)”. Besides, the “Binding … (sera/NHS ratio)” value in test [2] (Serum No. 19, Transmission Group) is reported as “- (specific OD450 or cpm of sera sample binding to peptide divided by the specific OD450 or cpm of NHS sample binding to peptide, which value is less than 2)”; in test [2] (Serum No. 20, Non-Transmission Group) it was “- (specific OD450 or cpm of sera sample binding to peptide divided by the specific OD450 or cpm of NHS sample binding to peptide, which value is less than 2)”.
